# System: HIV-1
# Settings: 10 μM, control inhibitor of infection
compound,measurement,value
Cc1cn([C@H]2C[C@H](N=[N+]=[N-])[C@@H](CO)O2)c(=O)[nH]c1=O [AZT],Inhibition of HIV-1 infection of MAGIC-5B cells (in words),totally suppressed

# Reference: article PMC516463 (Evidence-based Complementary and Alternative Medicine, 2004)
